Data as given in patent US20260364213A1, “RADIOLABELED COMPOUNDS OF TRIMETHOPRIM AND USES THEREOF” (THE TRUSTEES OF THE UNIVERSITY OF PENNSYLVANIA, priority 2023, published 2026).
“Also recorded” adds a separate entry of the source.

Assays:
[1] = In vitro stability in RPMI 1640 medium; type: physicochemical; conditions: 37 °C, up to 6 hours, radio-HPLC
Description: The specific activity of [^211At]At-TMP and [^125I]I-TMP was determined by comparison of radioactivity to the area under 288-nm ultraviolet light peak on radio-HPLC. The in vitro stability of [^211At]At-TMP was examined with incubation in Roswell Park Memorial Institute (RPMI) 1640 medium at 37 °C for up to 6 hours, followed by radio-HPLC analysis.

[2] = tested on: SKOV3 cells; assay: Cytotoxicity in SKOV3 cells with subcellular eDHFR-YFP; type: cell-based, human; conditions: for RBE: ref. cytoplasmic
Description: (§1) Wild-type and eDHFR-YFP-expressing I45 and SKOV3 cells were seeded on 96-well plates (Corning #3603) at the density of 1,000 cells/well and 3,000 cells/well, respectively, in complete growth media 24 hours before the assay. The following five treatment conditions were applied in complete growth media: 200 μCi/mL ~15 μCi/mL [^211At]At-TMP, 120 μCi/mL-15 μCi/mL free ^211At, 120 μCi/mL-15 μCi/mL [^211At]At-TMP+10 μM TMP, 10 nM-1 μM doxorubicin, and 40 μM−1 mM TMP. After 72 hours of incubation, the surviving fraction of the cells was quantified using CellTiter-Glo (Promega #G9243). See, Makvandi, Molecular cancer therapeutics. 2019; 18(7):1195-204. The assay was performed three times in triplicates. The effective concentration for 50% cell death (EC50) was determined for each treatment condition by fitting the surviving fractions into a non-linear sigmoidal dose-response curve. For eDHFR-YFP-positive cells, the [^211At]At-TMP treatment concentrations were converted to the number of ^211At decays/cell, using the median number of receptors/cell (obtained from YFP fluorescence) and Kd of [^211At]At-TMP. See, Lee, Journal of nuclear medicine. 2020; 61(6):850-6.
(§2) For comparison to the nuclear S-values, the observed cytotoxicity per ^211At decay was also expressed relative to cytoplasmic eDHFR-YFP. […] Finally, the ratio between the isolated cytotoxicity and nuclear S-value was calculated as the RBE for eDHFR-YFP in each subcellular compartment.
(§3) Supplemental Method 2. Calculation of the relative cytotoxicity of ^211At decay in different subcellular compartments. • By the linear-quadratic model for targeted alpha therapy,
(§4) (Survival)=e^−αD-βD^2≈e^−αD • Let N=number of ^211At decays/cell at EC50. Then, the following is obtained:
(§5) ln(0.5)=−αD=−TN • where T is the product of S-value and α, representing cytotoxicity per decay. Let F=fraction of eDHFR in each subcellular compartment. Then, the following can be written:
(§6) [formula] • where capital letters denote the microscopically observed subcellular location of eDHFR and lowercase letters denote the genetically targeted location of eDHFR.
(§7) The measured values of F (FIG. 19) and N (FIG. 28C) were then used to solve for T. DNA-targeted eDHFR observed in the nucleus is assumed to be 100% DNA-bound, and for SKOV3, Nc≈Nm is applied based on the lack of significant difference in EC50.
(§8) Finally, the T values are normalized with Tc to obtain the relative cytotoxicity of ^211At decay in each subcellular compartment compared to the cytoplasm.

[3] = target: T1, eDHFR-YFP (Escherichia coli, UniProt P0ABQ4); assay: Radioligand binding to eDHFR-YFP expressing cells; parameters: species or system E. coli
T1 sequence (P0ABQ4 1-159): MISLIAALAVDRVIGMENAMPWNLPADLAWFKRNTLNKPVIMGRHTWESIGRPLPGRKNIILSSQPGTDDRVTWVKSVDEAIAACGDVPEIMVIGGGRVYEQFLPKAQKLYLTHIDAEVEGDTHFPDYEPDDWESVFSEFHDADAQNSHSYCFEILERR
Description: Due to the high specific activity of [^211At]At-TMP that limits its working concentration to pM range, [^125I]I-TMP was used for saturation binding studies to determine Bmax.
eDHFR-YFP-positive I45 and SKOV3 cells were plated on 96-well plates (Corning #9102) at the density of 25,000 cells/well and 40,000 cells/well, respectively, in complete growth media 24 hours before the assay. […] After incubation at 37 °C for 90 minutes, the wells were aspirated and washed twice with ice-cold PBS. The radioactivity in each well was measured with a Perkin Elmer Wizard gamma counter. The assay was performed three times in triplicates. […] See, Swillens, Molecular pharmacology. 1995; 47(6):1197-203. The corresponding EC50 values were plotted against the receptor concentration/2 to determine the Kd. See, Hulme, British journal of pharmacology. 2010; 161(6):1219-37. The Bmax values were correlated with the total YFP florescence from the wells, with a correction factor of 2.5 and 2.2 for membrane-bound eDHFR-YFP in I45 and SKOV3, respectively, in order to account for decreased fluorescence per molecule from addition of the membrane localization signal to YFP. See, Wu, Science. 2005; 310(5746):310-4; and Bakholdina, Molecules. 2021; 26(13).
For determination of the Kd of [^211At]At-TMP, the binding assay protocol was repeated in I45 and SKOV3 cells expressing cytoplasmic eDHFR-YFP, using 150 μL of 0.06-60 nM [^125I]I-TMP±10 μM TMP for half of each 96-well plate and 50-260 μL of […] [^211At]At-TMP±10 μM TMP for the remaining half. The Bmax of each plate determined from [^125I]I-TMP binding was divided by the assay volumes used for [^211At]At-TMP to calculate the total receptor concentration ([RT]) in each [^211At]At-TMP well. The ligand depletion (δ) in each [^211At]At-TMP well was obtained by dividing the bound radioactivity by total added radioactivity. The assay was performed four times in triplicates. As derived in Supplemental Methods 1, δ^−1 was plotted against [RT]^−1 to determine the Kd as the slope of the linear best-fit line.
Supplemental Method 1. Measurement of the dissociation constant (Kd) of [^211At]At-TMP binding to eDHFR under non-saturating, ligand-depleting conditions. When [Ligand]<<Kd, ligand depletion (6) at equilibrium is
where [R] is the free receptor concentration and [RT]is the total receptor concentration. Since 6 is non-zero, taking the reciprocal of both sides of the equation yields
[formula] • If a δ^−1 vs. [RT]^−1 graph where y=δ^−1 and x=[RT]^−1 is plot,
Therefore, the slope of the linear best-fit line represents the Kd and the y-intercept is 1.

[4] = tested on: I45 cells; assay: Cytotoxicity in I45 cells with subcellular eDHFR-YFP; type: cell-based, human; conditions: for RBE: ref. cytoplasmic
Description: as §1, §2, §3, §4, §5, §6, §7, §8

[5] = tested on: I45 and SKOV3 cells; assay: Cytotoxicity in wild-type and eDHFR-YFP-expressing I45 and SKOV3 cells; type: cell-based, human
Description: After 72 hours of incubation, the surviving fraction of the cells was quantified using CellTiter-Glo (Promega #G9243). See, Makvandi, Molecular cancer therapeutics. […] The assay was performed three times in triplicates. […] See, Lee, Journal of nuclear medicine.

[6] = tested on: hamster fibroblasts; conditions: predominantly nuclear lead-212 vs predominantly cytoplasmic polonium-210; cited from earlier work

Which results are given for `COc1cc(Cc2cnc(N)nc2N)cc([At])c1OC` [[^211At]At-TMP]?
in vitro stability in aqueous media [1]: stable at 37 °C in aqueous media; relative cytotoxicity with reference to cytoplasmic eDHFR ([2]; SKOV3, DNA-bound): 13; RBE ([2]; SKOV3, DNA-bound): 3.2; relative cytotoxicity with reference to cytoplasmic eDHFR ([2]; SKOV3, membrane-bound): 1.0; RBE ([2]; SKOV3, membrane-bound): 1.4; relative cytotoxicity with reference to cytoplasmic eDHFR ([2]; SKOV3, nuclear): 8.5; RBE ([2]; SKOV3, nuclear): 2.0; binding affinity compared to [^125I]I-TMP ([3]; I45 and SKOV3 cells): lower binding affinity; Kd ([3]; I45 and SKOV3 cells): 2.5 to 4.8 nM; Kd ([3]; I45 cells): 4.8 ± 0.1 nM; Kd ([3]; SKOV3 cells): 2.5 ± 0.2 nM; relative cytotoxicity with reference to cytoplasmic eDHFR ([4]; I45, DNA-bound): 10; RBE ([4]; I45, DNA-bound): 3.1; cytotoxicity, membrane-bound compared to cytoplasmic eDHFR ([4]; I45, P=0.005): higher cytotoxicity compared to cytoplasmic eDHFR; relative cytotoxicity with reference to cytoplasmic eDHFR ([4]; I45, membrane-bound): 2.8; RBE ([4]; I45, membrane-bound): 3.5; relative cytotoxicity with reference to cytoplasmic eDHFR ([4]; I45, nuclear): 7.4; RBE ([4]; I45, nuclear): 2.3; cytotoxicity in eDHFR-expressing compared to wild-type cells ([5]; 72 h): significantly higher cytotoxicity; cytotoxicity per bound decays/cell, DNA-bound and nuclear eDHFR ([5]; DNA-bound P=0.017 I45, P=0.012 SKOV3, nuclear P=0.0006 I45, P=0.004 SKOV3): the highest cytotoxicity was observed with DNA-bound eDHFR (P=0.017 in I45 and P=0.012 in SKOV3), followed by nuclear eDHFR; pharmacologic cytotoxicity ([5]; up to 34 μM (so in the source)): absence of pharmacologic cytotoxicity; difference in cytotoxicity wild-type vs eDHFR-expressing, blocked ([5]; with 10 μM cold TMP): disappearance; also recorded: comparable across the wild-type and eDHFR-YFP-expressing cells

With lead-212 as the compound, how does the “RBE relative to gamma irradiation” value [6] read?
The value was 4.
